Measured values from patent US8173635B2, “Kinase inhibitors” (Vertex Pharmaceuticals Incorporated, priority 2007, dated 2012).

Key:
Type in all cases: biochemical
PKC theta kinase = PKC theta kinase (Homo sapiens, UniProt Q04759); experiment: PKC theta kinase inhibition, coupled-enzyme NADH absorbance assay (Ki); conditions: 240 μM ATP, 18 nM PKC theta, 30° C.; read-out: Ki PKC theta
Protocol: (§1) An assay buffer solution was prepared which consisted of 100 mM HEPES (pH 7.5), 10 mM MgCl2, 25 mM NaCl, 0.1 mM EDTA and 0.01% Brij. […] To 60 μL of this enzyme buffer, in a 384 well plate, was added 2 μL of VRT stock solution in DMSO. The mixture was allowed to equilibrate for 10 mins at 30° C. […] Ki values were calculated from initial rate data by non-linear regression using the Prism software package (Prism 4.0a, Graphpad Software, San Diego, Calif.).

PKC delta kinase = PKC delta kinase (Homo sapiens, UniProt Q05655); experiment: PKC delta kinase inhibition, coupled-enzyme NADH absorbance assay (Ki); conditions: 150 μM ATP, 46 nM PKC delta, 30° C.; read-out: Ki PKC delta
Chain of PKC delta kinase (Q05655 whole entry): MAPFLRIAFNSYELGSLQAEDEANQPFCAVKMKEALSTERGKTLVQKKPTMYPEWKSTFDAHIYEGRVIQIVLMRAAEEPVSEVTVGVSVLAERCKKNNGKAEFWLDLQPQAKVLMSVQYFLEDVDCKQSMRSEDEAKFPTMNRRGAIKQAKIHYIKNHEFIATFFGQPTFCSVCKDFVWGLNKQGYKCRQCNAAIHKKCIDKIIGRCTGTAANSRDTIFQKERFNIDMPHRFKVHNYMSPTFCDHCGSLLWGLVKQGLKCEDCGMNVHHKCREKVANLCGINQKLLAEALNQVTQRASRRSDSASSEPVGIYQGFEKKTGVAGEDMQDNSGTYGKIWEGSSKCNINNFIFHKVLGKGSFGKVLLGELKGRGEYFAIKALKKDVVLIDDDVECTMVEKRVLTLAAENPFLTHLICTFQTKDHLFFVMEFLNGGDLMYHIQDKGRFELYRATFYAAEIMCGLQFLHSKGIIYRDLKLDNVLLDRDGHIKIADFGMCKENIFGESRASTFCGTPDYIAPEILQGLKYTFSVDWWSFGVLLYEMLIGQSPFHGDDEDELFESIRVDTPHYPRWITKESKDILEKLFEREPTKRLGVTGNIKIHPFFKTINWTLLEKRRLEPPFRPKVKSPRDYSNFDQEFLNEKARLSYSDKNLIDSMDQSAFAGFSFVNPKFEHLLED
Protocol: as §1, with “To 16” for “To 60”, “added 1” for “added 2”

PKC alpha kinase = PKC alpha kinase (Homo sapiens, UniProt P17252); experiment: PKC alpha kinase inhibition, coupled-enzyme NADH absorbance assay (Ki); conditions: 130 μM ATP, 4.5 nM PKC alpha, 30° C.; read-out: Ki PKC alpha
Protocol: An assay buffer solution was prepared which consisted of 100 mM HEPES (pH 7.5), 10 mM MgCl2, 25 mM NaCl, 0.1 mM EDTA, 100 μM CaCl2 and 0.01% Brij. […] To 16 μL of this enzyme buffer, in a 384 well plate, was added 1 μL of VRT stock solution in DMSO. The mixture was allowed to equilibrate for 10 mins at 30° C. The enzyme reaction was initiated by the addition of 16 μL stock ATP solution prepared in assay buffer to a final assay concentration of 130 μM. Initial rate data was determined from the rate of change of absorbance at 340 nm (corresponding to stoichiometric consumption of NADH) using a Molecular Devices Spectramax plate reader (Sunnyvale, Calif.) over 15 mins at 30° C. […] Ki values were calculated from initial rate data by non-linear regression using the Prism software package (Prism 4.0a, Graphpad Software, San Diego, Calif.).

Chain of PKC theta kinase (Q04759 whole entry): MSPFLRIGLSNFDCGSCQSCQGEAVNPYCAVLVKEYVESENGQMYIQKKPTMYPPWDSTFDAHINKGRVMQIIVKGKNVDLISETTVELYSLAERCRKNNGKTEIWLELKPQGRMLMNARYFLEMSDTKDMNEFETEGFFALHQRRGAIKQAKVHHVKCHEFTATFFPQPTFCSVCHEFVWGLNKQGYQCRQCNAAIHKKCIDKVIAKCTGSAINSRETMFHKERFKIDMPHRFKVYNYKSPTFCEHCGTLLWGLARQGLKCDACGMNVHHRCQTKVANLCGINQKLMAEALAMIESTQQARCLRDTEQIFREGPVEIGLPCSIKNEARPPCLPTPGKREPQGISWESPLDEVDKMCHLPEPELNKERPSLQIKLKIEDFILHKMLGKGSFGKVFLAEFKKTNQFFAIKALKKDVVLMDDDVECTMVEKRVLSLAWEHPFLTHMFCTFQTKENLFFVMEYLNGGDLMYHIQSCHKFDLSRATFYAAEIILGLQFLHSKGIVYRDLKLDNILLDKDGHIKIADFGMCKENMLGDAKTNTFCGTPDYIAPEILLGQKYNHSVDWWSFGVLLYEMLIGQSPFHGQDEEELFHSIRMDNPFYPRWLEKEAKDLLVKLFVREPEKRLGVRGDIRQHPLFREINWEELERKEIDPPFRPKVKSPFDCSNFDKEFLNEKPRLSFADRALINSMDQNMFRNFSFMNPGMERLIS

COc1ccc(C2(CN)CCC2)cc1-c1ccnc2[nH]ncc12 [Compound 222]
Ki (PKC theta kinase): > 700 nM | Ki (PKC delta kinase): > 2000 nM | Ki (PKC alpha kinase): > 1200 nM

CC(C)=CC1(c2cccc(-c3ccnc4[nH]ncc34)c2)CCNC1 (stereo not drawn) [Compound 199]
Ki (PKC theta kinase): < 50 nM | Ki (PKC delta kinase): < 500 nM | Ki (PKC alpha kinase): < 500 nM

CCC(C)(C#N)c1cc(-c2ccnc3[nH]ncc23)cc(C(F)(F)F)c1 (stereo not drawn) [Compound 93]
Ki (PKC theta kinase): < 500 nM | Ki (PKC delta kinase): < 2800 nM | Ki (PKC alpha kinase): < 2800 nM

NCC1(c2cc(F)cc(-c3ccnc4[nH]nc(Cl)c34)c2)CCOCC1 [Compound 257]
Ki (PKC theta kinase): < 50 nM | Ki (PKC delta kinase): < 500 nM | Ki (PKC alpha kinase): < 500 nM

N#CC1(c2cc(-c3ccnc4[nH]ncc34)cc(C(F)(F)CCN)c2)CC1 [Compound 330]
Ki (PKC theta kinase): < 50 nM | Ki (PKC delta kinase): < 500 nM | Ki (PKC alpha kinase): < 500 nM

CCC(C)(CN)c1cc(-c2ccnc3[nH]ncc23)cc(C(F)(F)CCC2CCCCC2)c1 (stereo not drawn) [Compound 180]
Ki (PKC theta kinase): > 700 nM | Ki (PKC delta kinase): > 2000 nM | Ki (PKC alpha kinase): > 1200 nM

CCCc1cc(-c2ccnc3[nH]nc(Cl)c23)cc(C(C)(CC)CN)c1 (stereo not drawn) [Compound 210]
Ki (PKC theta kinase): < 50 nM | Ki (PKC delta kinase): < 2800 nM | Ki (PKC alpha kinase): < 500 nM

CCC(C)(CN)c1cc(CCO)cc(-c2ccnc3[nH]ncc23)c1 (stereo not drawn) [Compound 168]
Ki (PKC theta kinase): < 50 nM | Ki (PKC delta kinase): < 500 nM | Ki (PKC alpha kinase): < 500 nM

CCCc1cc(-c2ccnc3[nH]ncc23)cc(C(C)(C)CN)c1 [Compound 42]
Ki (PKC theta kinase): < 500 nM | Ki (PKC delta kinase): < 2800 nM | Ki (PKC alpha kinase): < 2800 nM

CCC(C)(CN)c1cc(CCCF)cc(-c2ccnc3[nH]ncc23)c1 (stereo not drawn) [Compound 160]
Ki (PKC theta kinase): < 50 nM | Ki (PKC delta kinase): < 2800 nM | Ki (PKC alpha kinase): < 500 nM

FC(F)(F)c1n[nH]c2nccc(-c3cccc(C4(COCc5ccccc5)CC4)c3)c12 [Compound 289]
Ki (PKC theta kinase): > 700 nM | Ki (PKC delta kinase): > 2000 nM | Ki (PKC alpha kinase): > 1200 nM

CCC(C)(C#N)c1cccc(-c2ccnc3[nH]ncc23)c1 (stereo not drawn) [Compound 64, 2-(3-(1H-pyrazolo[3,4-b]pyridin-4-yl)phenyl)-2-methylbutanenitrile]
Ki (PKC theta kinase): < 500 nM | Ki (PKC delta kinase): < 2800 nM | Ki (PKC alpha kinase): < 2800 nM

CCC(C)(C#N)c1cc(-c2ccnc3[nH]ncc23)cc(C(C)(F)F)c1 (stereo not drawn) [Compound 111]
Ki (PKC theta kinase): < 50 nM | Ki (PKC delta kinase): < 2800 nM | Ki (PKC alpha kinase): < 500 nM

CCc1n[nH]c2nccc(-c3cc(F)cc(C4(CN)CCC4)c3)c12 [Compound 263]
Ki (PKC theta kinase): < 50 nM | Ki (PKC delta kinase): < 500 nM | Ki (PKC alpha kinase): < 50 nM

CC(C)C(O)c1cc(-c2ccnc3[nH]ncc23)cc(C(C)(C)C#N)c1 (stereo not drawn) [Compound 19]
Ki (PKC theta kinase): < 500 nM | Ki (PKC delta kinase): > 2800 nM | Ki (PKC alpha kinase): > 2800 nM

CCC(C)(CN)c1cc(-c2ccnc3[nH]ncc23)cc(C(C)(F)F)c1 (stereo not drawn) [Compound 165]
Ki (PKC theta kinase): < 50 nM | Ki (PKC delta kinase): < 500 nM | Ki (PKC alpha kinase): < 500 nM

CC(CC#N)c1cc(Br)cc(-c2ccnc3[nH]ncc23)c1 (stereo not drawn) [Compound 238]
Ki (PKC theta kinase): < 500 nM | Ki (PKC delta kinase): < 2800 nM | Ki (PKC alpha kinase): < 2800 nM

CC(C)(C)c1n[nH]c2nccc(-c3cc(Br)cc(C(C)(C)C#N)c3)c12 [Compound 112]
Ki (PKC theta kinase): > 700 nM | Ki (PKC delta kinase): > 2000 nM | Ki (PKC alpha kinase): > 1200 nM

CC#CC[C@@](C)(CN)c1cccc(-c2ccnc3[nH]ncc23)c1 [Compound 186]
Ki (PKC theta kinase): < 500 nM | Ki (PKC delta kinase): < 2800 nM | Ki (PKC alpha kinase): < 2800 nM

N#CC1(c2cc(CCCN)cc(-c3ccnc4[nH]ncc34)c2)CC1 [Compound 301]
Ki (PKC theta kinase): < 50 nM | Ki (PKC delta kinase): < 500 nM | Ki (PKC alpha kinase): < 2800 nM

NCc1cccc(-c2ccnc3[nH]nc(C(F)(F)F)c23)c1 [Compound 294]
Ki (PKC theta kinase): < 500 nM | Ki (PKC delta kinase): > 1200 nM | Ki (PKC alpha kinase): > 1200 nM

CCSc1cc(-c2ccnc3[nH]ncc23)cc(C(C)(C#N)CC)c1 (stereo not drawn) [Compound 102]
Ki (PKC theta kinase): < 500 nM | Ki (PKC delta kinase): > 2000 nM | Ki (PKC alpha kinase): < 2800 nM

CC(C)(CN)c1cccc(-c2ccnc3[nH]ncc23)c1 [Compound 31, 2-(3-(1H-pyrazolo[3,4-b]pyridin-4-yl)phenyl)-2-methylpropan-1-amine]
Ki (PKC theta kinase): < 50 nM | Ki (PKC delta kinase): < 500 nM | Ki (PKC alpha kinase): < 2800 nM

CCc1cc(-c2ccnc3[nH]nc(C(F)(F)F)c23)cc(C(C)(CC)CN)c1 (stereo not drawn) [Compound 271]
Ki (PKC theta kinase): < 50 nM | Ki (PKC delta kinase): < 500 nM | Ki (PKC alpha kinase): < 500 nM

C/C=C\c1cc(-c2ccnc3[nH]ncc23)cc(C(C)(C#N)CC)c1 (stereo not drawn) [Compound 94]
Ki (PKC theta kinase): < 500 nM | Ki (PKC delta kinase): > 2800 nM | Ki (PKC alpha kinase): > 2800 nM

CCCc1cc(-c2ccnc3[nH]ncc23)cc(C(C)(CC)CN)c1 (stereo not drawn) [Compound 130]
Ki (PKC theta kinase): < 50 nM | Ki (PKC delta kinase): < 2800 nM | Ki (PKC alpha kinase): < 2800 nM

COc1ccc(C2(C#N)CCC2)cc1-c1ccnc2[nH]ncc12 [Compound 221]
Ki (PKC theta kinase): > 700 nM | Ki (PKC delta kinase): > 2000 nM | Ki (PKC alpha kinase): > 1200 nM

CCc1n[nH]c2nccc(-c3cccc(CN)c3)c12 [Compound 270]
Ki (PKC theta kinase): > 700 nM | Ki (PKC delta kinase): > 1200 nM | Ki (PKC alpha kinase): > 1200 nM

C1=C(c2cccc(-c3ccnc4[nH]ncc34)c2)CCNC1 [Compound 216]
Ki (PKC theta kinase): < 500 nM | Ki (PKC delta kinase): < 2800 nM | Ki (PKC alpha kinase): < 2800 nM

CCC(C)(CN)c1cccc(-c2ccnc3[nH]nc(Cl)c23)c1 (stereo not drawn) [Compound 204, 2-(3-(3-chloro-1H-pyrazolo[3,4-b]pyridin-4-yl)phenyl)-2-methylbutan-1-amine]
Ki (PKC theta kinase): < 50 nM | Ki (PKC delta kinase): < 50 nM | Ki (PKC alpha kinase): < 50 nM

CCC(C)(C#N)c1cc(CCCF)cc(-c2ccnc3[nH]ncc23)c1 (stereo not drawn) [Compound 107]
Ki (PKC theta kinase): < 500 nM | Ki (PKC delta kinase): > 2000 nM | Ki (PKC alpha kinase): < 2800 nM

CC(C)(C#N)c1cc(Br)cc(-c2ccnc3[nH]ncc23)c1 [Compound 18]
Ki (PKC theta kinase): < 50 nM | Ki (PKC delta kinase): < 2800 nM | Ki (PKC alpha kinase): < 2800 nM

CCC(C)(CN)c1cc(CCC(F)F)cc(-c2ccnc3[nH]ncc23)c1 (stereo not drawn) [Compound 161]
Ki (PKC theta kinase): < 500 nM | Ki (PKC delta kinase): > 2000 nM | Ki (PKC alpha kinase): < 2800 nM

CCC(C)(CN)c1cc(-c2ccnc3[nH]ncc23)cc(C(C)F)c1 (stereo not drawn) [Compound 159]
Ki (PKC theta kinase): < 50 nM | Ki (PKC delta kinase): < 2800 nM | Ki (PKC alpha kinase): < 2800 nM

NCC1(c2cc(F)cc(-c3ccnc4[nH]nc(Cl)c34)c2)CCC1 [Compound 255]
Ki (PKC theta kinase): < 50 nM | Ki (PKC delta kinase): < 50 nM | Ki (PKC alpha kinase): < 50 nM

OCC1(c2cccc(-c3ccnc4[nH]nc(C(F)(F)F)c34)c2)CCC1 [Compound 291]
Ki (PKC theta kinase): < 50 nM | Ki (PKC delta kinase): < 2800 nM | Ki (PKC alpha kinase): > 1200 nM

NCC1(c2cccc(-c3ccnc4[nH]nc(C(F)(F)F)c34)c2)CC1 [Compound 278]
Ki (PKC theta kinase): < 50 nM | Ki (PKC delta kinase): < 500 nM | Ki (PKC alpha kinase): < 500 nM

CCC(C)(C#N)c1cc(Cl)cc(-c2ccnc3[nH]ncc23)c1 (stereo not drawn) [Compound 87]
Ki (PKC theta kinase): < 500 nM | Ki (PKC delta kinase): < 2800 nM | Ki (PKC alpha kinase): < 2800 nM

CC(CN)(CC1CCOCC1)c1cccc(-c2ccnc3[nH]ncc23)c1 (stereo not drawn) [Compound 179]
Ki (PKC theta kinase): < 50 nM | Ki (PKC delta kinase): < 500 nM | Ki (PKC alpha kinase): < 500 nM

C1=C(c2cccc(-c3ccnc4[nH]ncc34)c2)CNC1 [Compound 231]
Ki (PKC theta kinase): < 500 nM | Ki (PKC delta kinase): < 2800 nM | Ki (PKC alpha kinase): < 2800 nM

Cc1cc(-c2ccnc3[nH]ncc23)cc(C2(C#N)CCC2)c1 [Compound 85]
Ki (PKC theta kinase): < 50 nM | Ki (PKC delta kinase): > 2800 nM | Ki (PKC alpha kinase): < 2800 nM

CCC(C#N)c1cccc(-c2ccnc3[nH]ncc23)c1 (stereo not drawn) [Compound 66]
Ki (PKC theta kinase): < 500 nM | Ki (PKC delta kinase): < 2800 nM | Ki (PKC alpha kinase): < 2800 nM

CCC1(c2cc(C)cc(-c3ccnc4[nH]ncc34)c2)CNC(=O)O1 (stereo not drawn) [Compound 228]
Ki (PKC theta kinase): < 50 nM | Ki (PKC delta kinase): < 2800 nM | Ki (PKC alpha kinase): < 500 nM

NCC1(c2cccc(-c3ccnc4[nH]nc(C(F)(F)F)c34)c2)CCOCC1 [Compound 214]
Ki (PKC theta kinase): < 50 nM | Ki (PKC delta kinase): < 500 nM | Ki (PKC alpha kinase): < 500 nM
